We go through three compounds from US20190293634A1, “ISOLATED INTESTINAL MUCOSA AND USES THEREOF” (priority 2018, published 2019).

Converted amounts (≈) assume the structure as drawn.

Data set [1] deals with cryopreserved intestinal mucosa isolated from human duodenum, jejunum, and ileum. Kind of data set: In vitro enterotoxicity assay with cryopreserved intestinal mucosa from duodenum, jejunum and ileum, cellular ATP contents (Example 8). Particulars: for IC50: Homo sapiens, read-out: IC50 (viability by cellular ATP contents), range over regions, duodenum, jejunum, and ileum of Donor 1. As to the method: (§1) The cryopreserved vials of the isolated intestinal mucosa comprising villi were removed from liquid nitrogen storage and thawed in a 37° C. water bath for approximately 2 min. The contents of each individual vial were decanted into a 50 ml conical tube containing Cryopreserved Enterocyte Recovery Medium, (In Vitro ADMET Laboratories, Columbia, Md.) that was pre-warmed in a 37° C. water bath. The thawed in vitro reagent was recovered by centrifugation at 100×g for 10 min at room temperature. After centrifugation, the supernatant was removed by decanting. A volume of 5 mL of 4° C. Hepatocyte/Enterocyte Incubation Medium, (In Vitro ADMET Laboratories, Columbia, Md.) was added to the intact pellet of enterocytes at the bottom of the conical tube followed by briskly re-pipetting 5 times with a P1000 micropipet to create an even suspension of the intestinal mucosal fragments.
(§2) In vitro cytotoxicity evaluation with cryopreserved intestinal mucosa was performed in 96-well plates. After recovery from cryopreservation as described above, the CHIM pellet was resuspended in 5 mL of Hepatocyte Incubation Medium (IVAL, Columbia, Md.). […] The cryopreserved intestinal mucosa cultures were then incubated in a CO2 cell culture incubator kept at 37° C. in a highly humidified atmosphere of 5% CO2. After an incubation duration of 24 hrs., cell viability was determined based on cellular ATP contents as previously described.
(§3) Data are presented as mean and standard deviation of triplicate incubations derived using the Microsoft Excel 6.0 software. Statistical analysis was performed using student's t-test with the Microsoft Excel 6.0 software, with the probability of p<0.05 to be considered statistically significant. Specific activity (pmol/min/mg protein) of each drug metabolizing enzyme pathway was determined by dividing the total metabolite formed by the incubation time and normalized to protein contents.

Assay in data set [2]: as above
Particulars: human, IC50 (cytotoxicity). As to the method: as §1, §2, §3

For data set [3], the system named is cryopreserved human intestinal mucosa. Nature of the data set: Drug-induced enterotoxicity in cryopreserved human intestinal mucosa, viability by cellular ATP contents (Example 6). Particulars: duodenum, jejunum and ileum, three donors, FIGS. 6 and 7. The method, then: A vial of cryopreserved intestinal mucosa was thawed in a 37 C deg. water bath and added to 50 mL of culture medium (Universal Cryopreservation Plating Medium, In Vitro ADMET Laboratories, Columbia, Md.). The recovered mucosa pellet was suspended in a protein free incubation medium (Hepatocyte Enterocyte Incubation Medium, In Vitro ADMET Laboratories, Columbia, Md.). […] The plate was incubated at 37 deg. C. for 24 hrs after which cell viability was determined by the quantification of cellular ATP contents (ATPLite, Perkin Elmers).

The subject of data set [4] is CYP24A1 mRNA. Nature of the data set: Induction of CYP24A1 transcription in cryopreserved isolated intestinal mucosa (RT-PCR). The data set is classed as cell-based, human. Particulars: 24-hr treatment, dose dependent. As to the method: Gene transcription in the intestinal mucosa was quantified based on reverse transcription-real time PCR (RT-PCR) using the 7500 Fast Real-Time PCR system (Applied Biosystems, Foster City, Calif.). Total RNA was extracted using the mini RNeasy kit (QIAGEN, www.qiagen.com) according to instructions provided by the manufacturer for isolation of total RNA from the intestinal mucosa. At first, reverse transcription (RT) was performed with approximately 200 ng of isolated RNA using the High Capacity cDNA Reverse Transcription Kit (Thermo Fisher Scientific Inc., www.thermofisher.com). Subsequently, quantitative PCR analysis was performed on RT reactions using gene specific primer/probe sets and the Taqman Fast Universal PCR Master Mix (Thermo Fisher). The relative quantity of the target gene was compared with that of the reference transcription of […] (GAPDH) as determined by the […] and as previously described (Fahmi, Kish et al. 2010).
P450 induction in cryopreserved metabolically competent isolated intestinal mucosa was evaluated based on gene transcription. Following a 24-hr treatment period, dose dependent induction of CYP3A4 mRNA by rifampin and 25-hydroxyD3; and, CYP24A1 mRNA by 25-hydroxyD3 were observed. For CYP3A4, the maximal fold of induction was approximately 3-fold for both inducers. Data shown for 25-hydroxyD3 in FIG. 10C.

The IC50 is the concentration needed to halve the response being measured.

Consider `COc1ccc2cc([C@H](C)C(=O)O)ccc2c1` [Naproxen, naproxen], for which the IC50 in data set [1] was in the range of 350 to 390 µg/mL (≈ 1520 to 1690 µM). Further, in data set [1] (three donors, 24 hrs), the “cytotoxicity in cryopreserved intestinal mucosa (in words)” value is reported as “Dose-dependent cytotoxicity”. Moreover, the half-maximal inhibitory concentration (IC50) at 24 h in data set [2] (Duodenum mucosa, 24 hrs, cellular ATP contents) came out at 350 µg/mL (≈ 1520 µM); in data set [2] (Ileum mucosa, 24 hrs, cellular ATP contents) it was 360 µg/mL (≈ 1560 µM); in data set [2] (Jejunum mucosa, 24 hrs, cellular ATP contents), 390 µg/mL (≈ 1690 µM). Also, the “viability in isolated intestinal mucosa (in words)” value in data set [3] is “dose-dependent decrease in viability”.

Take `CC(=O)Nc1ccc(O)cc1` [APAP, acetaminophen]: in data set [1], the “cytotoxicity in cryopreserved intestinal mucosa (in words)” value is “Dose-dependent cytotoxicity” and the IC50 fell in the range of 920 to 1180 µg/mL (≈ 6090 to 7810 µM). This compound also gave an IC50 at 24 h in data set [2] of 2250 µg/mL (≈ 14900 µM).

As for `C=C1/C(=C\C=C2/CCC[C@]3(C)[C@@H]([C@H](C)CCCC(C)(C)O)CC[C@@H]23)C[C@@H](O)C[C@@H]1O` [1,25(OH)D3, 1,25-dihydroxyvitamin D3], the “induction of CYP24A1 transcription (mRNA)” value was “approximately 300 fold” in data set [4], “Approximately 300 fold” in data set [4] (listed as 25-hydroxyD3) and “approx. 300 fold” in data set [4] (listed as vitamin D3).
